Source: patent US6437184B1, “Oxime compounds, their use, and intermediates for their production” (Sumitomo Chemical Company, Limited, priority 1997, dated 2002)

Experiments:
Musca domestica = test: Insecticidal test against Musca domestica; assay type: in vivo; conditions: 24 h, 500 ppm water dilution, 0.7 ml on filter paper with sucrose, female adults, after 1 day, read-out: mortality
Protocol: In the bottom of a polyethylene cup having a diameter of 5.5 cm was placed a piece of filter paper having the same size. A 200-fold water dilution (500 ppm) of a test compound formulation obtained according to Formulation Example 1 was added dropwise at a volume of 0.7 ml on the filter paper, and about 30 mg of sucrose as a diet was uniformly placed thereon. Ten female adults of houseflies (Musca domestica) were set free in the cup, and the cup was kept covered. After 1 day, the survival of the adults was determined to determine the mortality.

Cydia pomonella = test: Insecticidal test against Cydia pomonella; assay type: in vivo; conditions: 168 h, 100 ppm water dilution, 0.2 ml on surface of artificial diet, eggs just before hatching, after 7 days
Protocol: A water dilution (100 ppm) of a test compound formulation obtained according to Formulation Example 1 was added dropwise at a volume of 0.2 ml and spread over the surface of an artificial diet having a weight of 3 g, which had been prepared in a 30 ml polyethylene cup. After air drying, placed in the cup was a piece of wax paper (about 2.5 cm square) having about 20 eggs which had been laid by Cydia pomonella and were just before hatching. Four pieces of such wax paper were used for each treatment. After 7 days, the mortality of the larvae was determined.

SMILES | mortality at 500 µg/mL (Musca domestica) [%] | mortality at 100 µg/mL (Cydia pomonella) [%]
CON=Cc1ccc(OCCCOc2c(Cl)cc(OCC=C(Cl)Cl)cc2Cl)cc1 [(305), 4-(3-(2,6-dichloro-4-(3,3-dichloro-2-propenyloxy)phenoxy)propyloxy)benzaldehyde O-methyloxime] | ≥ 80 | 
CC(=NOC(C)(C)C)c1ccc(OCCCOc2c(Cl)cc(OCC=C(Cl)Cl)cc2Cl)cc1 [(294), 4′-(3-(2,6-dichloro-4-(3,3-dichloro-2-propenyloxy)phenoxy)propyloxy)acetophenone O-tert-butyloxime] |  | ≥ 80
CCCCOCC=NOCCCCCOc1c(Cl)cc(OCC=C(Cl)Cl)cc1Cl [(565), n-butyloxyacetaldehyde O-(5-(2,6-dichloro-4-(3,3-dichloro-2-propenyloxy)phenoxy)pentyl)oxime] | ≥ 80 | 
ClC(Cl)=CCOc1cc(Cl)c(OCCCCCON=C2CCCCC2)c(Cl)c1 [(566), cyclohexanone O-(5-(2,6-dichloro-4-(3,3-dichloro-2-propenyloxy)phenoxy)pentyl)oxime] | ≥ 80 | 
ClC(Cl)=CCOc1cc(Cl)c(OCc2cccc(C=NOCc3ccccc3)c2)c(Cl)c1 [(324), 3-(2,6-dichloro-4-(3,3-dichloro-2-propenyloxy)phenoxymethyl)benzaldehyde O-benzyloxime] |  | ≥ 80
ClC(Cl)=CCOc1cc(Cl)c(OCCCC=NOCC=C(Br)Br)c(Cl)c1 [(25), 4-(2,6-dichloro-4-(3,3-dichloro-2-propenyloxy)phenoxy)butanal O-(3,3-dibromo-2-propenyl)oxime] |  | ≥ 80
CC(=NOCCCCOc1c(Cl)cc(OCC=C(Cl)Cl)cc1Cl)c1ccccn1 [(689), methyl 2-pyridyl ketone O-(4-(2,6-dichloro-4-(3,3-dichloro-2-propenyloxy)phenoxy)butyl)oxime] | ≥ 80 | 
ClC(Cl)=CCOc1cc(Cl)c(OCCCCCON=C2CCSCC2)c(Cl)c1 [(572), tetrahydrothiopyran-4-one O-(5-(2,6-dichloro-4-(3,3-dichloro-2-propenyloxy)phenoxy)pentyl)oxime] |  | ≥ 80
CCON=CCOCCCCOc1c(Cl)cc(OCC=C(Cl)Cl)cc1Cl [(1), 4-(2,6-dichloro-4-(3,3-dichloro-2-propenyloxy)phenoxy)butyloxyacetaldehyde O-ethyloxime] | ≥ 80 | 
CON=Cc1ccc(CCCOc2c(Cl)cc(OCC=C(Cl)Cl)cc2Cl)cc1 [(365), 4-(3-(2,6-dichloro-4-(3,3-dichloro-2-propenyloxy)phenoxy)propyl)benzaldehyde O-methyloxime] |  | ≥ 80
C=CCON=CCCCCOc1c(Cl)cc(OCC=C(Cl)Cl)cc1Cl [(19), 5-(2,6-dichloro-4-(3,3-dichloro-2-propenyloxy)phenoxy)pentanal O-(2-propenyl)oxime] | ≥ 80 | 
CON=CCOCCCCCOc1c(Cl)cc(OCC=C(Cl)Cl)cc1Cl [(158), 5-(2,6-dichloro-4-(3,3-dichloro-2-propenyloxy)phenoxy)pentyloxyacetaldehyde O-methyloxime] | ≥ 80 | 
CC(C)=NOCCCCCOc1c(Cl)cc(OCC=C(Cl)Cl)cc1Cl [(560), acetone O-(5-(2,6-dichloro-4-(3,3-dichloro-2-propenyloxy)phenoxy)pentyl)oxime] | ≥ 80 | 
O=[N+]([O-])c1ccc(C=NOCCCCOc2c(Cl)cc(OCC=C(Cl)Cl)cc2Cl)cc1 [(578), 4-nitrobenzaldehyde O-(4-(2,6-dichloro-4-(3,3-dichloro-2-propenyloxy)phenoxy)butyl)oxime] |  | ≥ 80
ClC(Cl)=CCOc1cc(Cl)c(OCCCC=NOCc2ccccc2)c(Cl)c1 [(27), 4-(2,6-dichloro-4-(3,3-dichloro-2-propenyloxy)phenoxy)butanal O-benzyloxime] |  | ≥ 80
COc1ccc(CON=CCCCCOc2c(Cl)cc(OCC=C(Cl)Cl)cc2Cl)cc1 [(22), 5-(2,6-dichloro-4-(3,3-dichloro-2-propenyloxy)phenoxy)pentanal O-(4-methoxybenzyl)oxime] | ≥ 80 | 
C=CCON=Cc1cccc(COc2c(Cl)cc(OCC=C(Cl)Cl)cc2Cl)c1 [(330), 3-(2,6-dichloro-4-(3,3-dichloro-2-propenyloxy)phenoxymethyl)benzaldehyde O-allyl oxime] | ≥ 80 | 
ClC(Cl)=CCOc1cc(Cl)c(OCCCCCCON=C2CCSCC2)c(Cl)c1 [(575), tetrahydrothiopyran-4-one O-(6-(2,6-dichloro-4-(3,3-dichloro-2-propenyloxy)phenoxy)hexyl)oxime] |  | ≥ 80
CCCCCC=NOCCCCCCOc1c(Cl)cc(OCC=C(Cl)Cl)cc1Cl [(551), hexanal O-(6-(2,6-dichloro-4-(3,3-dichloro-2-propenyloxy)phenoxy)hexyl)oxime] | ≥ 80 | 

SMILES | mortality at 500 µg/mL (Musca domestica) [%] | mortality at 100 µg/mL (Cydia pomonella) [%]
CCON=C(C)c1ccc(OCCCCOc2c(Cl)cc(OCC=C(Cl)Cl)cc2Cl)cc1 [(297), 4′-(4-(2,6-dichloro-4-(3,3-dichloro-2-propenyloxy)phenoxy)butyloxy)acetophenone O-ethyloxime] |  | ≥ 80
CCCON=Cc1cccc(COc2c(Cl)cc(OCC=C(Cl)Cl)cc2Cl)c1 [(379), 3-((2,6-dichloro-4-(3,3-dichloro-2-propenyloxy)phenoxy)methyl)benzaldehyde O-propyloxime] |  | ≥ 80
CCc1cc(OCC=C(Cl)Cl)cc(CC)c1OCCCCOCC=NOCC=C(Cl)Cl [(10), 4-(2,6-diethyl-4-(3,3-dichloro-2-propenyloxy)phenoxy)butyloxyacetaldehyde O-(3,3-dichloro-2-propenyl)oxime] |  | ≥ 80
CC(COCCCCCOc1c(Cl)cc(OCC=C(Cl)Cl)cc1Cl)=NOCc1ccccc1 [(175), 5-(2,6-dichloro-4-(3,3-dichloro-2-propenyloxy)phenoxy)pentyloxyacetone O-benzyloxime] | ≥ 80 | 
CCON=CCCCOc1c(Cl)cc(OCC=C(Cl)Cl)cc1Cl [(28), 4-(2,6-dichloro-4-(3,3-dichloro-2-propenyloxy)phenoxy)butanal O-ethyloxime] | ≥ 80 | 
ClC(Cl)=CCON=Cc1cccc(COc2c(Cl)cc(OCC=C(Cl)Cl)cc2Cl)c1 [(323), 3-(2,6-dichloro-4-(3,3-dichloro-2-propenyloxy)phenoxymethyl)benzaldehyde O-(3,3-dichloro-2-propenyl)oxime] |  | ≥ 80
C=CCON=CCOCCCCOc1c(Cl)cc(OCC=C(Cl)Cl)cc1Cl [(4), 4-(2,6-dichloro-4-(3,3-dichloro-2-propenyloxy)phenoxy)butyloxyacetaldehyde O-(2-propenyl)oxime] | ≥ 80 | 
CC(C)CON=Cc1ccc(CCCOc2c(Cl)cc(OCC=C(Cl)Cl)cc2Cl)cc1 [(382), 4-(3-(2,6-dichloro-4-(3,3-dichloro-2-propenyloxy)phenoxy)propyl)benzaldehyde O-iso-butyloxime] |  | ≥ 80
CC(C)ON=CCOCCCCCOc1c(Cl)cc(OCC=C(Cl)Cl)cc1Cl [(153), 5-(2,6-dichloro-4-(3,3-dichloro-2-propenyloxy)phenoxy)pentyloxyacetaldehyde O-isopropyloxime] | ≥ 80 | 
ClC(Cl)=CCOc1cc(Cl)c(OCCCCC=NOCC(Cl)(Cl)Cl)c(Cl)c1 [(170), 5-(2,6-dichloro-4-(3,3-dichloro-2-propenyloxy)phenoxy)pentanal O-(2,2,2-trichloroethyl)oxime] | ≥ 80 | 
CCON=C(C)COCCCCCOc1c(Cl)cc(OCC=C(Cl)Cl)cc1Cl [(176), 5-(2,6-dichloro-4-(3,3-dichloro-2-propenyloxy)phenoxy)pentyloxyacetone O-ethyloxime] | ≥ 80 | 
CC=NOCCCCCOc1c(Cl)cc(OCC=C(Cl)Cl)cc1Cl [(541), acetaldehyde O-(5-(2,6-dichloro-4-(3,3-dichloro-2-propenyloxy)phenoxy)pentyl)oxime] | ≥ 80 | 
CCCCON=Cc1ccc(COc2c(Cl)cc(OCC=C(Cl)Cl)cc2Cl)cc1 [(376), 4-((2,6-dichloro-4-(3,3-dichloro-2-propenyloxy)phenoxy)methyl)benzaldehyde O-butyloxime] | ≥ 80 | 
CCCON=CCCCCOc1c(Cl)cc(OCC=C(Cl)Cl)cc1Cl [(18), 5-(2,6-dichloro-4-(3,3-dichloro-2-propenyloxy)phenoxy)pentanal O-n-propyloxime] | ≥ 80 | 
CON=CCOCCCCOc1c(Cl)cc(OCC=C(Cl)Cl)cc1Cl [(7), 4-(2,6-dichloro-4-(3,3-dichloro-2-propenyloxy)phenoxy)butyloxyacetaldehyde O-methyloxime] | ≥ 80 | 
CCON=CCOCCCCCOc1c(Cl)cc(OCC=C(Cl)Cl)cc1Cl [(159), 5-(2,6-dichloro-4-(3,3-dichloro-2-propenyloxy)phenoxy)pentyloxyacetaldehyde O-ethyloxime] | ≥ 80 | 
CON=CCCCOc1c(Cl)cc(OCC=C(Cl)Cl)cc1Cl [(29), 4-(2,6-dichloro-4-(3,3-dichloro-2-propenyloxy)phenoxy)butanal O-methyloxime] | ≥ 80 | 
CC(C)CON=CCOCCCCCOc1c(Cl)cc(OCC=C(Cl)Cl)cc1Cl [(155), 5-(2,6-dichloro-4-(3,3-dichloro-2-propenyloxy)phenoxy)pentyloxyacetaldehyde O-isobutyloxime] | ≥ 80 | 
CCON=Cc1ccc(OCCOc2c(Cl)cc(OCC=C(Cl)Cl)cc2Cl)cc1 [(287), 4-(2-(2,6-dichloro-4-(3,3-dichloro-2-propenyloxy)phenoxy)-ethoxy)benzaldehyde O-ethyloxime] | ≥ 80 | 
